Measurements reported in the supplement of paper PMC11451515.

How the values were obtained:
Details in all cases: 48 h
[1] = test system: NOMO1; test: cell viability relative to DMSO control; higher = less cytotoxic
In short: (§1)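 Viability is a per-plate percentage relative to DMSO wells, with cell-free wells as background. CellTiter-Glo One luminescence was read after 48 h at 37°C on 1536-well plates (5 μl) of NOMO1 or SEM (500 cells/well) or P12-Ichikawa (1000 cells/well) leukemia cells. The cells had been adapted for at least four passages in each medium and pin-dosed with library compounds in DMSO from 47 μM to 0.79 nM in 11 threefold steps.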

[2] = test system: P12-Ichikawa; test: as above
In short: as §1

[3] = test system: SEM cells; test: as above
In short: as §1

[4] = test system: NOMO1; test: AUC of viability dose-response curve (% viability x log10 dose units); higher = less sensitive
In short: (§2)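 Seeding of medium-adapted leukemia cells was at 500 or 1000 cells/well in 1536-well plates, followed by 48 h at 37°C with library compounds in DMSO at 11 threefold doses from 47 μM to 0.79 nM. CellTiter-Glo One luminescence was normalised per plate to DMSO and cell-free wells and fitted as a four-parameter log-logistic function of log10 dose. Area under the curve was integrated by trapezoidal rule, with curves exceeding full viability scaled and curves failing quality control removed.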

[5] = test system: P12-Ichikawa; test: as above
In short: as §2

[6] = test system: SEM cells; test: as above
In short: as §2

O=C1CCCC(=O)C1C(=O)c1ccc(C(F)(F)F)cc1[N+](=O)[O-]
cell viability [%]
Details | [1] | [2] | [3]
HPLM + 10% dialyzed FBS, 0.000781 µM | 138 | 106 | 112
HPLM + 10% dialyzed FBS, 0.00234 µM | 110 | 106 | 115
HPLM + 10% dialyzed FBS, 0.00702 µM | 105 | 108 | 100
HPLM + 10% dialyzed FBS, 0.0211 µM | 107 | 118 | 107
HPLM + 10% dialyzed FBS, 0.0632 µM | 103 | 112 | 108
HPLM + 10% dialyzed FBS, 0.19 µM | 106 | 113 | 108
HPLM + 10% dialyzed FBS, 0.569 µM | 111 | 106 | 114
HPLM + 10% dialyzed FBS, 1.71 µM | 118 | 105 | 102
HPLM + 10% dialyzed FBS, 5.12 µM | 113 | 110 | 106
HPLM + 10% dialyzed FBS, 15.4 µM | 93.6 | 98.3 | 113
HPLM + 10% dialyzed FBS, 46.1 µM | 54.3 | 100 | 108
RPMI 5 mM glucose + 10% FBS, 0.000781 µM | 102 | 123 | 109
RPMI 5 mM glucose + 10% FBS, 0.00234 µM | 105 | 116 | 103
RPMI 5 mM glucose + 10% FBS, 0.00702 µM | 99.2 | 114 | 112
RPMI 5 mM glucose + 10% FBS, 0.0211 µM | 99.9 | 123 | 98.4
RPMI 5 mM glucose + 10% FBS, 0.0632 µM | 104 | 113 | 109
RPMI 5 mM glucose + 10% FBS, 0.19 µM | 98.4 | 109 | 97.5
RPMI 5 mM glucose + 10% FBS, 0.569 µM | 103 | 119 | 112
RPMI 5 mM glucose + 10% FBS, 1.71 µM | 99.4 | 110 | 101
RPMI 5 mM glucose + 10% FBS, 5.12 µM | 98.4 | 111 | 108
RPMI 5 mM glucose + 10% FBS, 15.4 µM | 99.4 | 109 | 85.9
RPMI 5 mM glucose + 10% FBS, 46.1 µM | 92.8 | 105 | 86
RPMI 5 mM glucose + 10% dialyzed FBS, 0.000781 µM | 103 | 113 | 105
RPMI 5 mM glucose + 10% dialyzed FBS, 0.00234 µM | 108 | 113 | 104
RPMI 5 mM glucose + 10% dialyzed FBS, 0.00702 µM | 105 | 107 | 110
RPMI 5 mM glucose + 10% dialyzed FBS, 0.0211 µM | 90.1 | 110 | 110
RPMI 5 mM glucose + 10% dialyzed FBS, 0.0632 µM | 92 | 115 | 127
RPMI 5 mM glucose + 10% dialyzed FBS, 0.19 µM | 111 | 110 | 106
RPMI 5 mM glucose + 10% dialyzed FBS, 0.569 µM | 105 | 108 | 111
RPMI 5 mM glucose + 10% dialyzed FBS, 1.71 µM | 113 | 110 | 129
RPMI 5 mM glucose + 10% dialyzed FBS, 5.12 µM | 96.7 | 108 | 113
RPMI 5 mM glucose + 10% dialyzed FBS, 15.4 µM | 95.3 | 104 | 115
RPMI 5 mM glucose + 10% dialyzed FBS, 46.1 µM | 92.6 | 99.5 | 102

AUC of viability dose-response curve
Details | [4] | [5] | [6]
HPLM + 10% dialyzed FBS | 403 | 465 | 474
RPMI 5 mM glucose + 10% FBS | 471 | 450 | 464
RPMI 5 mM glucose + 10% dialyzed FBS | 463 | 468 | 466

CC[C@H]1CN2CCc3cc(OC)c(OC)cc3[C@@H]2C[C@@H]1C[C@H]1NCCc2cc(OC)c(OC)cc21
cell viability [%]
Details | [1] | [2] | [3]
HPLM + 10% dialyzed FBS, 0.000781 µM | 95.5 | 111 | 40.6
HPLM + 10% dialyzed FBS, 0.00234 µM | 105 | 116 | 88.1
HPLM + 10% dialyzed FBS, 0.00702 µM | 101 | 108 | 71.5
HPLM + 10% dialyzed FBS, 0.0211 µM | 107 | 103 | 73.9
HPLM + 10% dialyzed FBS, 0.0632 µM | 104 | 92.5 | 89.7
HPLM + 10% dialyzed FBS, 0.19 µM | 98.5 | 77.1 | 38.6
HPLM + 10% dialyzed FBS, 0.569 µM | 54.7 | 39.7 | 11.8
HPLM + 10% dialyzed FBS, 1.71 µM | 22.7 | 25.7 | 10.1
HPLM + 10% dialyzed FBS, 5.12 µM | 8.84 | 28.8 | 7.04
HPLM + 10% dialyzed FBS, 15.4 µM | 10.8 | 21.1 | 7.04
HPLM + 10% dialyzed FBS, 46.1 µM | 7.47 | 16.1 | 6.06
RPMI 5 mM glucose + 10% FBS, 0.000781 µM | 103 | 96.8 | 46.7
RPMI 5 mM glucose + 10% FBS, 0.00234 µM | 127 | 107 | 94.3
RPMI 5 mM glucose + 10% FBS, 0.00702 µM | 122 | 104 | 67.6
RPMI 5 mM glucose + 10% FBS, 0.0211 µM | 109 | 102 | 79.9
RPMI 5 mM glucose + 10% FBS, 0.0632 µM | 121 | 93.3 | 90.9
RPMI 5 mM glucose + 10% FBS, 0.19 µM | 111 | 69.4 | 61
RPMI 5 mM glucose + 10% FBS, 0.569 µM | 50.4 | 28.9 | 14.7
RPMI 5 mM glucose + 10% FBS, 1.71 µM | 27 | 16.6 | 11
RPMI 5 mM glucose + 10% FBS, 5.12 µM | 11.4 | 14.8 | 8.47
RPMI 5 mM glucose + 10% FBS, 15.4 µM | 9.75 | 13.4 | 9.05
RPMI 5 mM glucose + 10% FBS, 46.1 µM | 8.48 | 11.1 | 7.9
RPMI 5 mM glucose + 10% dialyzed FBS, 0.000781 µM | 106 | 103 | 35.8
RPMI 5 mM glucose + 10% dialyzed FBS, 0.00234 µM | 102 | 113 | 99.2
RPMI 5 mM glucose + 10% dialyzed FBS, 0.00702 µM | 98.3 | 109 | 74.9
RPMI 5 mM glucose + 10% dialyzed FBS, 0.0211 µM | 123 | 108 | 96
RPMI 5 mM glucose + 10% dialyzed FBS, 0.0632 µM | 118 | 103 | 113
RPMI 5 mM glucose + 10% dialyzed FBS, 0.19 µM | 109 | 80.3 | 67.8
RPMI 5 mM glucose + 10% dialyzed FBS, 0.569 µM | 47.5 | 56.5 | 22.2
RPMI 5 mM glucose + 10% dialyzed FBS, 1.71 µM | 27.8 | 29.6 | 13
RPMI 5 mM glucose + 10% dialyzed FBS, 5.12 µM | 14.9 | 19.4 | 9.62
RPMI 5 mM glucose + 10% dialyzed FBS, 15.4 µM | 9.41 | 14.1 | 9.49
RPMI 5 mM glucose + 10% dialyzed FBS, 46.1 µM | 8.82 | 13.6 | 8.97

AUC of viability dose-response curve
Details | [4] | [5] | [6]
HPLM + 10% dialyzed FBS | 305 | 289 | 193
RPMI 5 mM glucose + 10% FBS | 300 | 279 | 214
RPMI 5 mM glucose + 10% dialyzed FBS | 305 | 300 | 240
